Measured values: PMC3566091, “Binding of the Radioligand SIL23 to α-Synuclein Fibrils in Parkinson Disease Brain Tissue Establishes Feasibility and Screening Approaches for Developing a Parkinson Disease Imaging Agent” (PLoS ONE, 2013)
Where two headings read alike, the source gives them in different places.

Tests used:
Aβ plaques in AD brain [1] = conditions: cited from earlier work
[2] = target: T1, recombinant α-syn fibrils (Homo sapiens, UniProt P37840); conditions: read-out: Ki, α-Syn fibrils; 200 nM [125I]SIL23, 1 µM fibrils; Ki from EC50; 95% confidence interval in parentheses
Description: (§2) Purified recombinant α-syn monomer (2 mg/ml) was incubated in 20 mM Tris-HCl, pH 8.0, 100 mM NaCl for 72 h at 37°C with shaking at 1000 rpm in an Eppendorf Thermomixer. To determine the concentration of fibrils, the fibril reaction mix was centrifuged at 15,000×g for 15 min to separate fibrils from monomer. The concentration of α-syn monomer in the supernatant was determined in a BCA protein assay according to the manufacturer’s instructions, using a bovine serum albumin (BSA) standard curve. The measured decrease in α-syn monomer concentration was used to determine the concentration of fibrils in the 72 h fibril reaction mixture.
(§3) The prepared fibril mixture was centrifuged at 15,000×g for 15 min to prepare fibrils for binding assays.
(§4) Reactions were incubated at 37°C for 2 h before quantifying bound radioligand as described above for the saturation binding assay. All data points were performed in triplicate.

[3] = target: T2, Human PD brain homogenate (insoluble fraction) (Homo sapiens, UniProt P37840); conditions: read-out: Ki, Human PD brain homogenate; 200 nM [125I]SIL23, 10 µg insoluble fraction/150 µl; 95% confidence interval in parentheses
Description: as §4

PD tissue = system: PD tissue; design: method as in PMID 19576880; conditions: cited from earlier work
[4] = target: T1, recombinant α-syn fibrils; test: biochemical
Description: as §2, §3, §4

[5] = target: T2, Human PD brain homogenate (insoluble fraction); test: biochemical
Description: as §4

Aβ plaques in AD brain [6] = system: Aβ plaques in AD brain; design: method as in PMID 16291932; conditions: cited from earlier work
synthetic Aβ1–42 fibrils [7] = target: T3, synthetic Aβ1–42 fibrils (Homo sapiens, UniProt P05067); test: biochemical
T3 sequence (P05067 672-713 limits assumed): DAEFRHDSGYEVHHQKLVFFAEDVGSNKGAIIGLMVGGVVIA
Description: (§5) Synthetic Aβ1–42 peptide (1 mg) (Bachem, Torrance, CA) was first dissolved in 50 µl DMSO. An additional 925 µl of mQ-H2O was added. […] The dissolved peptide was incubated for 30 h at 37°C with shaking at 1000 rpm in an Eppendorf Thermomixer. […] To determine the concentration of fibrils, the fibril reaction mix was centrifuged at 15,000×g for 15 min to separate fibrils from monomer. The concentration of Aβ monomer in the supernatant was determined in a BCA protein assay using a BSA standard curve that contained DMSO at a percentage equivalent to the samples.
as §3
Reactions were incubated at 37°C for 2 h before quantifying bound radioligand as described above for the saturation binding assay.

recombinant tau fibrils [8] = target: T4, recombinant tau fibrils (Homo sapiens, UniProt P10636); test: biochemical
T4 sequence (P10636 560-692): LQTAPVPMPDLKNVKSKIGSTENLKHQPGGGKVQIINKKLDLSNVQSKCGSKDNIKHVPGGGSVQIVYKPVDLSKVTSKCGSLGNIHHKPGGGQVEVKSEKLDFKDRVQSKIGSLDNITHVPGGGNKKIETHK
Description: (§6) To determine the concentration of fibrils, the fibril reaction mixer was centrifuged at 15,000×g for 15 min to separate fibrils from monomer. The concentration of tau monomer in the supernatant was determined in a BCA protein assay along with a BSA standard curve. The measured decrease in monomer concentration was used to determine the concentration of tau fibrils in the 48 h fibril reaction mixture.
as §3, §4

[9] = system: insoluble fractions from control human brain tissue; test: [125I]SIL23 saturation binding to insoluble fractions of control brain tissue; conditions: four control cases, listed as [^125I]SIL23
Description: Brain tissue samples were selected from an autopsy case series of patients evaluated for parkinsonism by movement disorders specialists at the Movement Disorders Center of Washington University School of Medicine in St. Louis. The clinical diagnosis of idiopathic PD was based on modified United Kingdom Parkinson’s Disease Society Brain Bank clinical diagnostic criteria with clear clinical response to levodopa. Dementia was determined by a movement disorders specialist based on clinical assessment of cognitive dysfunction sufficiently severe to impair activities of daily living, with further evaluation of cognitive impairment using the AD8 [20] and Mini-Mental Status Exam (MMSE). LB stage was assessed at autopsy using a PD staging scale (range: 0, 1–6). PD cases were selected based on a clinical diagnosis of PD plus dementia, Braak LB stage 5–6 pathology, and the absence of significant Aβ or tau pathology determined by immunohistochemistry. Control cases were selected based on the absence of α-syn, Aβ and tau pathology. Samples were used from both male and female subjects.
(§1) All data points were performed in triplicate.

[10] = system: crude PBS homogenate from control human brain; test: [125I]SIL23 saturation binding to crude control brain homogenate; conditions: unfractionated PBS homogenate
Description: as §1

synthetic Aβ1–42 fibrils [11] = target: T3, synthetic Aβ1–42 fibrils
Description: as §5, §3

recombinant tau fibrils [12] = target: T4, recombinant tau fibrils
Description: as §6, §3

Structure (SMILES): CNc1ccc(/C=C/c2ccc(OCCOCCOCCF)nc2)cc1 [AV-45]
- average Bmax (binding site density) for AV-45 binding in AD brain (Aβ plaques in AD brain [1]; AD brain): 8.8 pmol/mg protein
- Kd (Aβ plaques in AD brain [1]; read-out: Kd for AV-45 binding to Aβ plaques): 3.7 nM

Structure (SMILES): CN(C)c1ncc(/C=C/c2nc3ccc(OCCF)cc3o2)s1 [BF227]
- Ki [2]: 39.7 nM
- Ki [3]: 138 nM
- radiolabeled BF227 binding in PD tissue (PD tissue): not detectable

Structure (SMILES): O=C(O)c1cc(/N=N/c2ccc(-c3ccc(/N=N/c4ccc(O)c(C(=O)O)c4)cc3)cc2)ccc1O [Chrysamine G]
- Ki [4]: 432 nM
- Ki [5]: 367 nM

Structure (SMILES): CNc1ccc(-c2nc3ccc(O)cc3s2)cc1 [PiB, Pittsburgh Compound B]
- average Bmax (binding site density) for PiB binding in AD brain (Aβ plaques in AD brain [6]; AD brain): 1407 pmol/g wet weight
- Kd (Aβ plaques in AD brain [6]; read-out: Kd for PiB binding to Aβ plaques): 2.5 nM
- Ki [4]: 116 nM
- Ki [5]: 99.2 nM

Structure (SMILES): O=[N+]([O-])c1ccc2c(c1)Sc1ccccc1N2 [SIL3B]
- Ki (synthetic Aβ1–42 fibrils [7]): 71.5 nM
- Ki (recombinant tau fibrils [8]): 52.3 nM

Structure (SMILES): COc1ccc2c(c1)Sc1cc([N+](=O)[O-])ccc1N2 [SIL5]
- Ki (synthetic Aβ1–42 fibrils [7]): 110 nM

Structure (SMILES): O=[N+]([O-])c1ccc2c(c1)Sc1cc(Br)ccc1N2 [SIL22]
- Ki (synthetic Aβ1–42 fibrils [7]): 102 nM
- Ki (recombinant tau fibrils [8]): 173 nM

Structure (SMILES): O=[N+]([O-])c1ccc2c(c1)Sc1cc(OC/C=C/I)ccc1N2 [SIL23]
- [125I]SIL23 binding in control cases [9]: no significant [^125I]SIL23 binding
- [125I]SIL23 binding in crude homogenate of a control case [10]: no significant binding
- [125I]SIL23 binding in crude homogenate of a control case ([10]; listed as [^125I]SIL23): No significant specific binding
- Bmax of [125I]SIL23 binding to Aβ1–42 fibrils (synthetic Aβ1–42 fibrils [11]): 23.7 pmol/nmol
- Bmax of [125I]SIL23 binding to tau fibrils (recombinant tau fibrils [12]): 4.57 pmol/nmol
